The source of these data is patent US8691184B2, “Bcl-2/Bcl-xL inhibitors and therapeutic methods using the same” (The Regents of the University of Michigan, priority 2011, dated 2014).

Series [1] deals with RS4;11 cell line. Briefly: Western blot of PARP and caspase-3 cleavage, RS4;11. The settings on record: as low as 100 nM, 8-hr treatment. The series is classed as cell-based. As to the method: (§1) Cells were lysed with lysis buffer (PBS containing 1% NP40, 0.5% Na-deoxycholate, and 0.1% SDS) supplemented with protease inhibitors (α-complete, Roche). The protein extracts were quantified using a calorimetric assay (Bradford Reagent) (BioRad, Hercules, Calif.). Proteins were electrophoresed onto 4-20% SDS-PAGE gels (Invitrogen) and transferred onto polyvinylidene difluoride membranes (Bio-Rad). Following blocking in 5% milk, membranes were incubated with a specific primary antibody, washed, and incubated with horseradish peroxidase-linked secondary antibody (Pierce). The signals were visualized with the chemiluminescent horseradish peroxidase antibody detection reagent (Denville Scientific).
(In general: In western blotting, separated proteins are transferred to a membrane and probed.)

Another series concerns the target Bcl-xL (Homo sapiens, UniProt Q07817). Description: FP-based binding assay, Bcl-xL. The note with it: Table 2, FP-based assay.
The test system of series [2] is RS4;11 cell line. Description: Apoptosis assay (Annexin-V/PI flow cytometry), RS4;11. The format is cell-based. The note with it: for RS4;11 cells undergoing apoptosis: within 4 hrs. As to the method: (§2) Apoptosis assay was performed using the Annexin-V-FLUOS Staining kit (Roche Diagnostics, Indianapolis, Ind.) according to the manufacturer's instruction. Briefly, cells were treated with compounds for the indicated time points, harvested and washed with PBS. Cells were stained with Annexin V-FITC and Propidium iodide for 15 minutes at room temperature in the dark before analyzed with a BD Biosciences FACSCaliburs (Becton Dickinson).
Background: A flow cytometer gives signals particle by particle.

The test system of the next series is cellular Bcl-2/Bcl-xL. Briefly: Competitive pull-down against Biotin-150 in ML-2 and H146 cell lysates. The note with it: competitive experiment. The format is binding.
Series [3] has as its system H146 small-cell lung cancer cell line. Briefly: Cell death assay (trypan blue), H146. The series is classed as cell-based. The note with it: for H146 cells undergoing cell death: 24-hr treatment, trypan blue. On the procedure: Cell death assay was performed using a Trypan blue exclusion test of cell viability. One million cells were seeded in 6-well plates and incubated at 37° C. in an atmosphere of 95% air and 5% CO2 with or without compounds for the indicated time points. At the end of treatment, cells were collected and centrifuged at 1000 rpm for 5 minutes. The cell pellets were re-suspended in PBS and mixed with 0.4% Trypan blue (Invitrogen) at 1:1 dilution to determine cell viability using Olympus CKX41 microscope (Olympus, Center Valley, Pa.).

Series [4] deals with H146 cell line. Briefly: Western blot of PARP and caspase-3 cleavage, H146. The format is cell-based. The settings on record: as low as 100 nM, 8-hr treatment. As to the method: as §1
The next series concerns ML-2 AML cell line. Briefly: Apoptosis assay (Annexin-V/PI flow cytometry), ML-2. The format is cell-based. The settings on record: 300 nM, 24 hr. As to the method: as §2
Series [5] concerns H146 cell line. Description: Cytochrome c and Smac release assay, H146. The series is classed as cell-based. The note with it: H146, 300 nM, within 2 hr. On the procedure: (§3) Four million of H146 or RS4;11 cells were treated with compounds at 37° C. in an atmosphere of 95% air and 5% CO2 for the indicated time points, washed with PBS and re-suspended in 100 μl of digitonin buffer (75 mM NaCl, 8 mM Na2HPO4, 1 mM NaH2PO4, 1 mM EDTA, 350 μg/ml digitonin, and 250 mM sucrose). Cytosolic fractions were separated from organelle membrane fraction by centrifugation at 13,000 rpm for 1 min. The cytosolic fractions were resolved on a 12% SDS-PAGE and probed using anti-cytochrome c antibody (BD Biosciences) and anti-Smac (Cell Signaling Technology, Danvers, Mass.) antibody.
(§4) Potent and bona fide Bcl-2/Bcl-xL inhibitors are predicted to induce apoptosis in cancer cells by binding to cellular Bcl-2 and Bcl-xL proteins, antagonizing their anti-apoptotic function and triggering rapid release of Smac and cytochrome c from mitochondria. Furthermore, the release of Smac and cytochrome c should take place before apoptosis. Accordingly, compound 150 was tested for its ability to induce cytochrome c and Smac release in the RS4;11 and H146 cell lines.

For series [6], the system named is ML-2 acute myeloid leukemia (AML) cell line. Briefly: Cell growth assay (WST-8), ML-2. The format is cell-based. The note with it: Table 3; read-out: Cell Growth Inhibition (IC50 ± SD) ML-2. (In general: Tetrazolium assays rely on reduction of a dye to a coloured formazan, in cell work by metabolically active cells.)
The subject of another series is RS4;11 cells. Description: Cell growth assay (WST-8), RS4;11. The series is classed as cell-based. The settings on record: Homo sapiens, RS4-11, 96 h; Table 3, 4 days; read-out: Cell Growth Inhibition (IC50 ± SD) RS4; 11. On the procedure:
(§5) RS4;11 and H146 cells were seeded in 96-well cell culture plates at a density of 10,000 cells/well with serially diluted compounds and incubated at 37° C. in an atmosphere of 95% air and 5% CO2 for 4 days. Cell viability was determined using the WST-8 (2-(2-methoxy-4-nitrophenyl)-3-(4-nitrophenyl)-5-(2,4-disulfophenyl)-2H-tetrazolium, monosodium salt) based Cell Counting-8 Kit (Dojindo Molecular Technologies, Inc., Rockville, Md.) according to the manufacture's instruction. Briefly, WST-8 was added to each well at a final concentration of 10% (v/v), and then the plates were incubated at 37° C. for 1˜2 hours for color development. The absorbance was measured at 450 nm using a SPECTRAmax PLUS plate reader (Molecular Devices, Sunnyvale, Calif.). The half maximal inhibitory concentration (IC50) was calculated using the GraphPad Prism 5 software (GraphPad Software, La Jolla, Calif.).

A further series has as its system ML-2 cell line. Briefly: Western blot of PARP and caspase-3 cleavage, ML-2. The note with it: as low as 100 nM, 8-hr treatment. The format is cell-based. As to the method:
as §1

The next series has as its system H146 cells. Briefly: Cell growth assay (WST-8), H146. The format is cell-based. The settings on record: Homo sapiens, NCI-H146, 96 h; Table 3, 4 days; read-out: Cell Growth Inhibition (IC50 ± SD) H146. As to the method:
as §5

The next series concerns the target Bcl-2 (Homo sapiens, UniProt P10415). Briefly: FP-based binding assay, Bcl-2.
Series [7] is described as follows: Toxicity (maximum tolerated dose) in SCID mice. The format is in vivo. The note with it: for Weight loss at higher dose: SCID mice; for Weight loss or other signs of toxicity: female SCID mice, intravenously, daily, 5-times a week for 2 weeks.
Description: These experiments established the maximum tolerated doses (MTD).
Series [8] deals with RS4;11 cell line. Description: Cytochrome c and Smac release assay, RS4;11. The format is cell-based. The settings on record: RS4;11, 100 nM, within 30 minutes. On the procedure:
as §3, §4

The test system of series [9] is H146 xenograft tumors. Description: Antitumor activity in the H146 xenograft tumor model. The series is classed as in vivo. On the procedure: The antitumor activity of compound 169 in the H146 xenograft tumor model also was tested. […] At the end of the treatment (day 39), compound 169 inhibited the tumor growth by 100% (p<0.0001, t-test).
Another series has as its system RS4;11 xenograft tumors. Briefly: Apoptosis induction in RS4;11 xenograft tumors. The format is in vivo, SCID mice. The settings on record: RS4;11 model, single dose. As to the method:
(§6) Compounds 150, 133, and 169 were tested for their toxicity in severe combined immunodeficiency (SCID) mice. SCID mice bearing xenograft tumors were treated with vehicle control, or a single dose of a compound, and tumors were removed at different time-points for western blot analysis of cleavage of PARP (CL-PARP) and caspase-3 (CL Cas-3). The ability of compounds 150 and 169 to induce apoptosis at their MTD in RS4;11 or H146 xenograft tumors in SCID mice was tested. In these experiments, RS4;11 or H146 tumors were allowed to grow to 200-300 mm^3 in female SCID mice. A single dose of the compound was administered to the animals and tumor tissues were analyzed for cleavage of PARP and caspase-3.

The subject of series [10] is H146 xenograft tumors. Briefly: Apoptosis induction in H146 xenograft tumors. The series is classed as in vivo, SCID mice. As to the method:
as §6

Bcl-2, sequence (P10415 whole entry): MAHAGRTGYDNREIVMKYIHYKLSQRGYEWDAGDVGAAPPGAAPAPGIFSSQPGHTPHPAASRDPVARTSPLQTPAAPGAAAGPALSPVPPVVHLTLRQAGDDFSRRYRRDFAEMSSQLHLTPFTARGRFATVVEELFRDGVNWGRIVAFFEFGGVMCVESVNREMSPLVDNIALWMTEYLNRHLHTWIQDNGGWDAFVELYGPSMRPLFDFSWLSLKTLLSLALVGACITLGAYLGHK
Bcl-xL, sequence (Q07817 whole entry): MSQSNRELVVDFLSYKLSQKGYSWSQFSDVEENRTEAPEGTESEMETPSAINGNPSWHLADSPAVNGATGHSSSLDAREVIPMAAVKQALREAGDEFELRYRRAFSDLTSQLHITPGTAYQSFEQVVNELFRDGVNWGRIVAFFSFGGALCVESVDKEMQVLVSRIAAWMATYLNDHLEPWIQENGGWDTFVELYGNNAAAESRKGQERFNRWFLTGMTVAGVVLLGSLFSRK

In the case of `Cc1c(C(=O)NCCCN2CCN(C)CC2)c(-c2cccc(N3CCN(c4ccc(NS(=O)(=O)c5ccc(N[C@H](CCN(C)C)CSc6ccccc6)c([N+](=O)[O-])c5)cc4)CC3)c2)c(-c2ccc(Cl)cc2)n1C` [Compound 150], the “Cleavage of PARP and caspase-3” value was “highly effective in induction of cleavage of PARP and caspase-3” in the series on RS4;11 cell line [1]; “highly effective in induction of cleavage of PARP and caspase-3” with H146 cell line [4]; “highly effective in induction of cleavage of PARP and caspase-3” in the series with ML-2 cell line. For the same compound, the IC50 (usually the concentration needed to halve the response being measured) worked out at 9 ± 2 nM at Bcl-xL (read-out: Bcl-xL IC50 ± SD); 185 ± 84 nM in series [6]; 38 ± 24 nM in the series on RS4;11 cells; 102 ± 44 nM in the series on H146 cells; 2 ± 0.6 nM at Bcl-2 (read-out: Bcl-2 IC50 ± SD, Table 2, FP-based assay). Also, the Ki (commonly the dissociation constant of the complex between target and ligand, obtained from inhibition or displacement) at Bcl-xL (read-out: Bcl-xL Ki ± SD, no unit printed in this row) is 2.4 ± 0.5 nM; at Bcl-2, under 1 nM. Besides, in the series on RS4;11 cell line [2] (100 nM, 16 hr time-point), the “RS4;11 tumor cells undergoing apoptosis” value is on record as over 50%. In addition, the “RS4;11 cells undergoing apoptosis” value in the series with RS4;11 cell line [2] (100 nM, Annexin-V/PI) stood at 30%; in the series on RS4;11 cell line [2] (300 nM, Annexin-V/PI), 60%. Besides, the “Apoptosis induction in RS4;11” value in the series with RS4;11 cell line [2] (time- and dose-dependent, Annexin-V/PI) is reported as “highly effective in induction of apoptosis”. Also, the “Blocking of interaction of cellular Bcl-2/Bcl-xL with Biotin-150” value in the series with cellular Bcl-2/Bcl-xL is “blocked the interaction of cellular Bcl-2/Bcl-xL and Biotin-150 in a dose-dependent manner”. Besides, the “H146 cells undergoing cell death” value is on record as 40% in [3] (30 nM) and over 70% in series [3] (100 nM). The “Cell death induction in H146” value in [3] (trypan blue assay) is “effectively induced cell death”. Besides, in the series on ML-2 AML cell line, the “ML-2 cells undergoing apoptosis” value is on record as “about 50%”. The “Release of cytochrome c and Smac from mitochondria” value with H146 cell line [5] is “strong release of cytochrome c and Smac”; in the series with RS4;11 cell line [8], “robust release of cytochrome c and Smac”. Moreover, the “Weight loss at higher dose” value in [7] (50 mg/kg) is “caused weight loss”. For the same compound, the “Weight loss or other signs of toxicity” value in [7] (25 mg/kg) is listed as “no or minimal weight loss or other signs of toxicity”.
With `Cc1c(C(=O)O)c(-c2cccc(N3CCN(c4ccc(NS(=O)(=O)c5ccc(N[C@H](CCN6CCC(O)CC6)CSc6ccccc6)c(S(=O)(=O)C(F)(F)F)c5)cc4)CC3)c2)c(-c2ccc(Cl)cc2)n1C.Cl` [Compound 169, (R)-5-(4-chlorophenyl)-4-(3-(4-(4-(4-((4-(4-hydroxypiperidin-1-yl)-1-(phenylthio)butan-2-yl)amino)-3-((trifluoromethyl)sulfonyl)phenylsulfonamido)phenyl)piperazin-1-yl)phenyl)-1,2-dimethyl-1H-pyrrole-3-carboxylic acid], the “Tumor growth inhibition versus vehicle-treated tumors” value in the series with H146 xenograft tumors [9] (day 53, 2 weeks after the treatment was stopped, p=0.0001) is 79%. Also, in the series on H146 xenograft tumors [9] (during the entire experiment), the “Other signs of toxicity” value is listed as “no other signs of toxicity” and the Weight loss is reported as under 3%. Also, the Tumor growth inhibition in the series on H146 xenograft tumors [9] (end of the treatment (day 39), p<0.0001) is reported as 100%. Further, in the series with RS4;11 xenograft tumors, the “Cleavage of PARP and caspase-3 in tumor tissues” value is “strong effect in induction of cleavage of PARP and caspase-3”. In addition, in the series with H146 xenograft tumors [10] (H146, single-dose 50 mg/kg IV, 3 hr and 6 hr-time points), the “Cleavage of PARP and caspase-3 in xenograft tumor tissues” value was “induced cleavage of PARP and caspase-3”. The “Cleavage of PARP and caspase-3 in tumor tissues” value in the series on H146 xenograft tumors [10] (H146 model, single dose) is “strong effect in induction of cleavage of PARP and caspase-3”. Besides, the “Weight loss at higher dose” value in series [7] (75 mg/kg) is listed as “caused weight loss”. The “Weight loss or other signs of toxicity” value in series [7] was “no or minimal weight loss or other signs of toxicity”.
